According to PMC10063231, “Human thymopoiesis produces polyspecific CD8^+ α/β T cells responding to multiple viral antigens” (eLife, 2023):

Tested on: TCR identified as responding to the VMNILLQYV peptide (GAD 114-122 TCR)
Assay: Response of a cloned GAD 114-122-reactive TCR in the reporter cell line to cognate and unrelated peptides
Assay type: cell-based, human
Conditions: cognate peptide versus structurally unrelated peptide, Figure 5D

Row | Sequence | Response of GAD 114-122 TCR in reporter cell line
1 | SLYNPAIVYA [peptide from human chondroitin sulfate N-acetylgalactosaminyltransferase 2] | responded even better
2 | VMNILLQYV [peptide from the Glutamic Acid Decarboxylase protein] | responding
